Assay results from BindingDB's records for doi:10.1021/jf103164r (Rutgers University, 2011).

These compounds were tested against T1, Dihydrofolate reductase (Homo sapiens, UniProt P00374) (assay: Inhibition of human DHFR).
T1 sequence (P00374 whole entry): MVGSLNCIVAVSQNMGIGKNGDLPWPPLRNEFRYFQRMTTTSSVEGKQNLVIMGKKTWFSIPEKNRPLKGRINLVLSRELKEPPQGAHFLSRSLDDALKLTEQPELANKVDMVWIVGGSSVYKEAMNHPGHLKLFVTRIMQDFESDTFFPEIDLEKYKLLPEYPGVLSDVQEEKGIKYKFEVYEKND
In the case of Nc1nnc(CCC(=O)c2cccs2)s1 [3-(5-Amino-[1,3,4]thiadiazol-2-yl)-1-(thiophen-2-yl)propan-1-one], the IC50 is reported as 300 µM.
With CS(=O)(=O)c1ccc2nc(N)sc2c1 [6-(methylsulfonyl)benzo[d]thiazol-2-amine] the IC50 was 1040 µM.
For Nc1nc2ccc(OC(F)(F)F)cc2s1 [SMR000058231], the IC50 was 312 µM.
